Results published in patent US10856562B2, “Flavor composition and edible compositions containing same” (MARS, INCORPORATED, priority 2013, dated 2020).
“Also recorded” adds a separate entry of the source. Square brackets hold non-standard residues; d marks the D form. Ends that are not written are not given here. pGlu = O=C1CC[C@@H](C(=O)O)N1

Legend:
Assay type in all cases: in vivo, human
panelists [1] = test: Return to baseline protocol: salt reference re-tasted at 1 minute intervals; conditions: for Time needed to return to baseline as the concentration increases: 0.1 to 40.0/50.0 ppb
Experimental: (§1) After evaluating the sample for salt and other perceptions (step 3 above), each panelist re-tasted the salt reference (5.0 intensity) at 1 minute intervals until their perception of the saltiness intensity of the reference returned to 5.0. Each panelist recorded salt intensity at each interval and took qualitative notes on other perceptions seen in aftertaste. Attribute Perception Protocol • The panelists evaluated each sample using the following procedure • Descriptive Profiles (flavor and chemical feeling factors) of 5 levels of salt enhancing solutions • Individual data was collected for the flavor and chemical feeling factors of the product in-mouth • Increased Salt Perception Protocol • Each panelist tasted salt 5 reference (0.35% salt solution)—to ground themselves on salt intensity of 5.0. • Each panelist tasted the test sample (0.1 ppb, 0.5 ppb, 1.0 ppb, 10.0 ppb or 40.0/50.0 ppb all in 0.2% NaCl solution: only one per session) • Each panelist then re-tasted the salt 5 reference and rated it for salt intensity as well as any other basic taste, chemical feeling factor, or aromatic perceived. This captured any increased salt perception indicated by the test sample as well as any other perceptions present. • Return to Baseline Protocol • After evaluating the sample for salt & other perceptions, panelists re-tasted the salt 5 reference at 1 minute intervals until their perception of the salt 5 saltiness intensity had returned to 5.0. Each panelist recorded their salt intensity at each interval and took qualitative notes on other perceptions seen in aftertaste. Sample Preparation

panel of trained tasters = test: Saltiness of sodium-reduced pasta sauce with peptides, panel of trained tasters; conditions: n=4
Experimental: Food product compositions were prepared by admixing flavor composition peptide(s) of the present application with food compositions, wherein the level of sodium (NaCl) in the food product compositions was reduced. The level of sodium was reduced by 25%, 50% or 75% compared to food products compositions that were not admixed with flavor composition peptides. The food product compositions comprising the flavor composition peptides were tasted by a panel of trained tasters and the level of saltiness was compared to the control food products.
The peptides pGlu-Val-Leu (identified as “SE-13”), pGlu-Val-Cys (identified as “UE-30”) and pGlu-Val-Val (identified as “SE-17”) were tested in Pasta Sauce. The control pasta sauce comprised 540 mg sodium (NaCl) in a 125 g serving.

panelists [2] = test: Descriptive profile (Spectrum method) of peptide in 0.2% NaCl solution, in-mouth; conditions: for Astringent, in-mouth perception / Bitter, in-mouth perception / Flinty/Mineral, in-mouth perception / Metallic, in-mouth perception / Numbing, in-mouth perception / Salt, in-mouth perception (mean salt perception in-mouth) / Sour, in-mouth perception / Sweet, in-mouth perception: mean score, 15-point scale; for Salt perception in-mouth as the concentration increases: 0.1 to 40.0/50.0 ppb in 0.2% NaCl
Experimental: Descriptive Profiles (Flavor and Chemical Feeling Factors) of five use levels of a pGlu-Val-Leu flavor composition were determined using the Spectrum™ method. The five use levels were as follows: 0.1 ppb, 0.5 ppb, 1.0 ppb, 10.0 ppb and 40.0 ppb.
Data was collected for the flavor and chemical feeling factors of the product in-mouth for each of the five use levels according to the following protocol. One replication was collected for the flavor and chemical feeling factors of the product in-mouth. 6-9 panelists evaluated per session.
2. Each panelist tasted a test sample (0.1 ppb, 0.5 ppb, 1.0 ppb, 10.0 ppb or 40.0 ppb all in 0.2% NaCl solution). Only one sample was tasted per session.
Descriptive attributes (e.g., taste, flavor and chemical feeling factors) of six use levels of pGlu-Val-Leu (SE-13), pGlu-Val (SE-14) and pGlu-Val-Val (SE-17) flavor composition peptides were determined. The six use levels were as follows: 0.1 ppb, 0.5 ppb, 1.0 ppb, 10.0 ppb, 40.0 ppb and 50.0 ppb.
Data was collected for the attributes of the product in-mouth for the use levels according to the following protocol: • The samples were analyzed for flavor and aftertaste by six-nine members of a panel, trained and experienced in appearance, flavor and texture evaluation using the Spectrum™ method. Samples in solution were evaluated across multiple panel sessions. • The strength of each attribute was rated on a 15-point scale, where 0=none and 15=very strong. • This scale incorporates the ability to use tenths of a point and therefore has the potential of 150 scale differentiations. • The scale may be expanded beyond 15 points to include extreme ratings if necessary.
as §1, with “Attribute” for “After evaluating the sample for salt and other perceptions (step 3 above), each panelist re-tasted the salt reference (5.0 intensity) at 1 minute intervals until their perception of the saltiness intensity of the reference returned to 5.0. Each panelist recorded salt intensity at each interval and took qualitative notes on other perceptions seen in aftertaste. Attribute”
The 0.1, 0.5, 1.0 10, 40, and 50 ppb test samples of the flavor composition peptides were prepared in water as described in table 4.
The panelists evaluated each sample for the attributes described in table 5.

## [pGlu]-Val-Leu [SE-13]
Panelists [1]; 0.1 ppb in 0.2% NaCl
  Mean time needed to return to baseline: 7.6 min
  Mean time needed to return to baseline (min.): 7.6 min
Panelists [1]
  Time needed to return to baseline as the concentration increases: increases notably from 0.1 ppb to 0.5 ppb and from 10.0 ppb to 40.0 ppb; also recorded: does not necessarily increase
Panelists [1]; listed as pGlu-Val-Leu
  Time needed to return to baseline as the concentration increases: did not necessarily increase
Panelists [1]; 0.5 ppb in 0.2% NaCl
  Mean time needed to return to baseline: 9.5 min
  Mean time needed to return to baseline (min.): 9.5 min
Panelists [1]; 1.0 ppb in 0.2% NaCl
  Mean time needed to return to baseline: 8.7 min
  Mean time needed to return to baseline (min.): 8.7 min
Panelists [1]; 10.0 ppb in 0.2% NaCl
  Mean time needed to return to baseline: 8.6 min
  Mean time needed to return to baseline (min.): 8.6 min
Panelists [1]; 40.0 ppb in 0.2% NaCl
  Mean time needed to return to baseline: 13.1 min
  Mean time needed to return to baseline (min.): 13.1 min
Panelists [1]; overall
  Time needed to return to baseline, comparison of SE-13, SE-14 and SE-17: greatest
Panel of trained tasters; 25% sodium reduction, 10 and 1 ppb
  Saltiness compared to control at 25% reduction: to control, slightly less salty.
Panel of trained tasters; control 540 mg Na/serving, test 25, 50, 75% reduction, 10 ppb and 1 ppb
  Saltiness compared to control: Test variables perceived less
Panelists [2]; 0.1 ppb in 0.2% NaCl
  Astringent, in-mouth perception: 0.0
  Bitter, in-mouth perception: 0.0
  Flinty/Mineral, in-mouth perception: 0.1
  Metallic, in-mouth perception: 0.1
  Numbing, in-mouth perception: 0.0
  Salt, in-mouth perception (mean salt perception in-mouth): 2.3
  Sour, in-mouth perception: 0.0
  Sweet, in-mouth perception: 0.0
Panelists [2]; 0.1 to 40.0/50.0 ppb
  Level of the aromatics, basic tastes and chemical feeling factors in-mouth with increasing concentration: does not increase
Panelists [2]
  Salt perception in-mouth as the concentration increases: does not increase notably; also recorded: Does not show a notable increase
Panelists [2]; listed as pGlu-Val-Leu
  Salt perception in-mouth as the concentration increases: did not significantly increase
Panelists [2]; 0.5 ppb in 0.2% NaCl
  Astringent, in-mouth perception: 0.0
  Bitter, in-mouth perception: 0.0
  Flinty/Mineral, in-mouth perception: 0.3
  Metallic, in-mouth perception: 0.3
  Numbing, in-mouth perception: 0.0
  Salt, in-mouth perception (mean salt perception in-mouth): 2.8
  Sour, in-mouth perception: 0.0
  Sweet, in-mouth perception: 0.2
Panelists [2]; 1.0 ppb in 0.2% NaCl
  Astringent, in-mouth perception: 0.0
  Bitter, in-mouth perception: 0.0
  Flinty/Mineral, in-mouth perception: 0.5
  Metallic, in-mouth perception: 0.1
  Numbing, in-mouth perception: 0.0
  Salt, in-mouth perception (mean salt perception in-mouth): 2.3
  Sour, in-mouth perception: 0.0
  Sweet, in-mouth perception: 0.0
Panelists [2]; 10.0 ppb in 0.2% NaCl
  Astringent, in-mouth perception: 0.0
  Bitter, in-mouth perception: 0.0
  Flinty/Mineral, in-mouth perception: 0.3
  Metallic, in-mouth perception: 0.1
  Numbing, in-mouth perception: 0.0
  Salt, in-mouth perception (mean salt perception in-mouth): 3.1
  Sour, in-mouth perception: 0.0
  Sweet, in-mouth perception: 0.0
Panelists [2]; 40.0 ppb in 0.2% NaCl
  Astringent, in-mouth perception: 0.0
  Bitter, in-mouth perception: 0.0
  Flinty/Mineral, in-mouth perception: 0.4
  Metallic, in-mouth perception: 0.1
  Numbing, in-mouth perception: 0.0
  Salt, in-mouth perception (mean salt perception in-mouth): 2.8
  Sour, in-mouth perception: 0.0
  Sweet, in-mouth perception: 0.0
Panelists [2]; all levels
  Umami like swelling of lips and tongue, in-mouth: Panelists also experience Umami like swelling of lips and tongue
Panelists [2]; both in-mouth and after expectoration
  Umami like feeling factor of lip and tongue swelling: Shows umami like feeling factor of lip and tongue swelling
